Results taken from PMC7265341, “Quantifying CDK inhibitor selectivity in live cells” (Nature Communications, 2020).
pIC50: −log10 of the molar value. Read-outs that look alike come from different tables or passages of the source.

Tests used:
Assay type in all cases: binding
CDK1/Cyclin E1 = CDK1/Cyclin E1 (Homo sapiens, UniProt P06493); assay: NanoBRET live-cell target engagement, CDK1-NanoLuc/Cyclin E1 in HEK-293; conditions: for inhibition at 10 µM: read-out: CDK1/E1 Inhibition at 10µM (%)
CDK2/Cyclin E1 = CDK2/Cyclin E1 (Homo sapiens, UniProt P24941); assay: NanoBRET live-cell target engagement, CDK2-NanoLuc/Cyclin E1 in HEK-293; conditions: 10µM, read-out: CDK2/E1 Inhibition at 10µM (%)
CDK3/Cyclin E1 = CDK3/Cyclin E1 (Homo sapiens, UniProt Q00526); assay: NanoBRET live-cell target engagement, CDK3-NanoLuc/Cyclin E1 in HEK-293; conditions: for inhibition at 10 µM: read-out: CDK3/E1 Inhibition at 10µM (%); for pIC50: read-out: CDK3/E1 IC50
Sequence of CDK3/Cyclin E1 (Q00526 whole entry): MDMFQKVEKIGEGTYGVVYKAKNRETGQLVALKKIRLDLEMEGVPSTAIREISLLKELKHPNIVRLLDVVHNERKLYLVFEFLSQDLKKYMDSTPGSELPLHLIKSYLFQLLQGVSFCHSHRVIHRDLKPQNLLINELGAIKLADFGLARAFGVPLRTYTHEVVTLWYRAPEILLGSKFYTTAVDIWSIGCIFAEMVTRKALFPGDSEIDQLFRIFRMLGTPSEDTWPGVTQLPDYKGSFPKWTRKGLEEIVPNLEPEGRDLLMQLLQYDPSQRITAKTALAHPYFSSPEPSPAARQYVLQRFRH
Sequence of CDK3/Cyclin E1 (P24864 whole entry partner): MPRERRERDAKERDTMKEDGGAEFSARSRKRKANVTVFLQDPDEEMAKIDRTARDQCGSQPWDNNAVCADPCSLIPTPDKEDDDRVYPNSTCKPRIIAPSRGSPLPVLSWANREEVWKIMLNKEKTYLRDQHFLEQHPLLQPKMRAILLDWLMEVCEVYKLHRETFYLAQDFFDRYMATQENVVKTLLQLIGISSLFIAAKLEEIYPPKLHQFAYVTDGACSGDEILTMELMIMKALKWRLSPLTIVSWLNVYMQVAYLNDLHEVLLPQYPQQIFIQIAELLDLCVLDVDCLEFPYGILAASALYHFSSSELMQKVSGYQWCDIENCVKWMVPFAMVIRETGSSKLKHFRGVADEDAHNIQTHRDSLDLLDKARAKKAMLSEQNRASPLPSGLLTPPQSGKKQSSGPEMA

CDK4/Cyclin D1 = CDK4/Cyclin D1 (Homo sapiens, UniProt P11802); assay: NanoBRET live-cell target engagement, NanoLuc-CDK4/Cyclin D1 in HEK-293; conditions: for inhibition at 10 µM: read-out: CDK4/D1 Inhibition at 10µM (%)
Sequence of CDK4/Cyclin D1 (P11802 whole entry): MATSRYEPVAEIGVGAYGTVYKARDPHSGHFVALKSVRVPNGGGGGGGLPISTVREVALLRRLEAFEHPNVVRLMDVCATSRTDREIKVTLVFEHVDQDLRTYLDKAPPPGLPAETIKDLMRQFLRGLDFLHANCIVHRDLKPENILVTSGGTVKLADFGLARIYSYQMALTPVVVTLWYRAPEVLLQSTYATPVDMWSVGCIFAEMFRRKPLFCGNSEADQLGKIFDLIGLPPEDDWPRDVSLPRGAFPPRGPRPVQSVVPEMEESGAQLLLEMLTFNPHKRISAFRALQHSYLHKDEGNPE
Sequence of CDK4/Cyclin D1 (P24385 whole entry partner): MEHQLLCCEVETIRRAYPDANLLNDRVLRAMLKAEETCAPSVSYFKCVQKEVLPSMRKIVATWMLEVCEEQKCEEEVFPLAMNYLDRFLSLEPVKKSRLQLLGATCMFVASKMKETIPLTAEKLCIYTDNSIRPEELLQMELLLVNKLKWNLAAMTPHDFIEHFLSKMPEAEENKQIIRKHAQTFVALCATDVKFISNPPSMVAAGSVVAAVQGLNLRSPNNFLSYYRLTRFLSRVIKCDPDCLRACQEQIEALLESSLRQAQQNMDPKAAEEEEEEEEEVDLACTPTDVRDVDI

CDK5/CDK5R1 = CDK5/CDK5R1 (Homo sapiens, UniProt Q00535); assay: NanoBRET live-cell target engagement, CDK5-NanoLuc/CDK5R1 in HEK-293; conditions: for inhibition at 10 µM: read-out: CDK5/CDK5R1 Inhibition at 10µM (%)
Sequence of CDK5/CDK5R1 (Q00535 whole entry): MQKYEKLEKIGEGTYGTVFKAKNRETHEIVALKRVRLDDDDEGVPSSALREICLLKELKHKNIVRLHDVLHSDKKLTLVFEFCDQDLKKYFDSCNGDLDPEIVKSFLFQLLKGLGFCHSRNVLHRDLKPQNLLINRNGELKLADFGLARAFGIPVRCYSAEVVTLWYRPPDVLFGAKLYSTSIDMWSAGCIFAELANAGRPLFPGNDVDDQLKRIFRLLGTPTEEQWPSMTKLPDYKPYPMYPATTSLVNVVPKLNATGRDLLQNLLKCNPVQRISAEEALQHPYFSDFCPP
Sequence of CDK5/CDK5R1 (Q15078 whole entry partner): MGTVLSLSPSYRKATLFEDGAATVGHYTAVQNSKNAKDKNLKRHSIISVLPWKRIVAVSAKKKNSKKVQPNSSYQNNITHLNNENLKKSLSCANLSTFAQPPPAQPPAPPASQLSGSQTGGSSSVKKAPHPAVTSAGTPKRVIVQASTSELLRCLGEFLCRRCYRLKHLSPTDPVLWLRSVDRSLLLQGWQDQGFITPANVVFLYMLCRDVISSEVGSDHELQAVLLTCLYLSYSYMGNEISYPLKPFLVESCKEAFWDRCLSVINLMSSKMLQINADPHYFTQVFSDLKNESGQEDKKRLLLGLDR

CDK7 = CDK7 (Homo sapiens, UniProt P50613); assay: NanoBRET live-cell target engagement, NanoLuc-CDK7 in HEK-293; conditions: for inhibition at 10 µM: read-out: CDK7 Inhibition at 10µM (%); for pIC50: read-out: CDK7 IC50
Sequence of CDK7 (P50613 whole entry): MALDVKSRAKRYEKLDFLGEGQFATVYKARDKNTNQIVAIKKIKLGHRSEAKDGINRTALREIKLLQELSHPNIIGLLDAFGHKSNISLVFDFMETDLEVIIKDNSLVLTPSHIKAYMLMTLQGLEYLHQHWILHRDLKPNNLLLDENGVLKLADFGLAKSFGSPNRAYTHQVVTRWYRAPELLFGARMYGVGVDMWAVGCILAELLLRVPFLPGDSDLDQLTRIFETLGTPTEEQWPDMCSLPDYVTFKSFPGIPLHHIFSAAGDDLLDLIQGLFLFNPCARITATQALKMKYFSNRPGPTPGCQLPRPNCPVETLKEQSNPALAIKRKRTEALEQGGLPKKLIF

CDK8/Cyclin C = CDK8/Cyclin C (Homo sapiens, UniProt P49336); assay: NanoBRET live-cell target engagement, NanoLuc-CDK8/Cyclin C in HEK-293; conditions: 10µM, read-out: CDK8/C Inhibition at 10µM (%)
Sequence of CDK8/Cyclin C (P49336 whole entry): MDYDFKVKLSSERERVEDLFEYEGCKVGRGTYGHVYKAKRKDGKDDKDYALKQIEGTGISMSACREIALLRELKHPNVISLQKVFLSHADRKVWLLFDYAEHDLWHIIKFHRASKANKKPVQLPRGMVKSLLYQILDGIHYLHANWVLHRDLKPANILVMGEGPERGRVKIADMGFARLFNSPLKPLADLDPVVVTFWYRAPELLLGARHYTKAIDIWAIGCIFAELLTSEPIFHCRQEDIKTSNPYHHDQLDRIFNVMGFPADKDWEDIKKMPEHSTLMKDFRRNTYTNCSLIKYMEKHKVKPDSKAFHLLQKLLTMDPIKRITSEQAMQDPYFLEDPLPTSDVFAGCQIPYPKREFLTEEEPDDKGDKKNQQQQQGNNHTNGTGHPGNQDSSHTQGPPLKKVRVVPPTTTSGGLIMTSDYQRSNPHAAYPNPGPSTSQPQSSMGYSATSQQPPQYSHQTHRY
Sequence of CDK8/Cyclin C (P24863 whole entry partner): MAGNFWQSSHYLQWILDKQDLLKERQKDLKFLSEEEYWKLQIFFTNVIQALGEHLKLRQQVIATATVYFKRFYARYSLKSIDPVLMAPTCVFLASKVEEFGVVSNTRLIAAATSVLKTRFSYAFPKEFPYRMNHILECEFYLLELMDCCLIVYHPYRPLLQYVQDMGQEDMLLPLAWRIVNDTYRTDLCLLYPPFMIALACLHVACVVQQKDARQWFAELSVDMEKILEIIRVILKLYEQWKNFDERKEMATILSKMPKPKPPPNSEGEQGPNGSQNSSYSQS

CDK9/Cyclin K = CDK9/Cyclin K (Homo sapiens, UniProt P50750); assay: NanoBRET live-cell target engagement, NanoLuc-CDK9/Cyclin K in HEK-293; conditions: 10µM, read-out: CDK9/K Inhibition at 10µM (%)
Sequence of CDK9/Cyclin K (P50750 whole entry): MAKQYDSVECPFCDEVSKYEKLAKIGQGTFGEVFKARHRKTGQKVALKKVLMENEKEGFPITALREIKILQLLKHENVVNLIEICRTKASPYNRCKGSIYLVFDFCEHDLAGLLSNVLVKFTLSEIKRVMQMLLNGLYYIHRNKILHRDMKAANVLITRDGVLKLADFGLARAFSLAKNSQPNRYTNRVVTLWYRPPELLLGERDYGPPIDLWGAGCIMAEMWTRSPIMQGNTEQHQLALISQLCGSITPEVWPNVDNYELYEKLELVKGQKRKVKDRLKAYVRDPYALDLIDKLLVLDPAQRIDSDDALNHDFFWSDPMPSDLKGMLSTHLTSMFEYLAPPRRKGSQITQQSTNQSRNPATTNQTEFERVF
Sequence of CDK9/Cyclin K (O75909 whole entry partner): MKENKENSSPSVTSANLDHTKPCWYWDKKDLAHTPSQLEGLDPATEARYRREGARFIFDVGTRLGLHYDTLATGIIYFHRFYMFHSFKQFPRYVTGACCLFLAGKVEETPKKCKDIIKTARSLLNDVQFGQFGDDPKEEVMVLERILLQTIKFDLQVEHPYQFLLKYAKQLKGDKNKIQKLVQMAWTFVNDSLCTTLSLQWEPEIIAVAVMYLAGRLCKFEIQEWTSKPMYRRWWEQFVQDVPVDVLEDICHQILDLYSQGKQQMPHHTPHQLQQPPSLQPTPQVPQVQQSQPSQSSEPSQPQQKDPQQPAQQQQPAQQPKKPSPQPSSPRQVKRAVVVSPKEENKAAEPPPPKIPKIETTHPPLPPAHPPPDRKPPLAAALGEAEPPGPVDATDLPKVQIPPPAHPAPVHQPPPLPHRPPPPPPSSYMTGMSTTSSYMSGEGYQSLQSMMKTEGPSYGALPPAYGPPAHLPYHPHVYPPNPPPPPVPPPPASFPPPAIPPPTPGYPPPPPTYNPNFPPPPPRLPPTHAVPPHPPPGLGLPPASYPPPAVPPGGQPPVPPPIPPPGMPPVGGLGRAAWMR

CDK11A/Cyclin L2 = biological target: T1, CDK11A/Cyclin L2 (Homo sapiens, UniProt Q9UQ88); assay: NanoBRET live-cell target engagement, CDK11A-NanoLuc/Cyclin L2 in HEK-293; conditions: for inhibition at 10 µM: read-out: CDK11a/L2 Inhibition at 10µM (%); for pIC50: read-out: CDK11a/L2 IC50
T1 sequence (Q9UQ88 1-783): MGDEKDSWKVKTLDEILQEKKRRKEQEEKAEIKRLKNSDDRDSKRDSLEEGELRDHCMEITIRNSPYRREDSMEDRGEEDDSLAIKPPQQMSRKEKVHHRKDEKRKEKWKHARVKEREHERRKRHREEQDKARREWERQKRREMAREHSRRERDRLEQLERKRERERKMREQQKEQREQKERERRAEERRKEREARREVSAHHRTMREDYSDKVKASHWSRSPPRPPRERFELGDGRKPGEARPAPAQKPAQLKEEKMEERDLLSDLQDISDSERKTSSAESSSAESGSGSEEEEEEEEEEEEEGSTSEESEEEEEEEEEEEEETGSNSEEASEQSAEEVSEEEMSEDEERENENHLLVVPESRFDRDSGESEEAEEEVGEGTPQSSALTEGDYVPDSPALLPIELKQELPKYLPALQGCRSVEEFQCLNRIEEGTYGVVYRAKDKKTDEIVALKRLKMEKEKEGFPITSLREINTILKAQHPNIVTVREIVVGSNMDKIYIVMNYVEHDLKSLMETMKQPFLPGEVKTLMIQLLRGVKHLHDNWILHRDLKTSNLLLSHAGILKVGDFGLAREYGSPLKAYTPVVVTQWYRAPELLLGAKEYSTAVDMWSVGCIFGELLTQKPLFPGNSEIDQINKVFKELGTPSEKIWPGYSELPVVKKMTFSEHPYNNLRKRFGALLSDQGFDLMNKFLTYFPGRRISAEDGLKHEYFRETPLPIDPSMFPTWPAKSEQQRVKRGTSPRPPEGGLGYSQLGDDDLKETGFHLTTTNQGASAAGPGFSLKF

Sequence of CDK1/Cyclin E1 (P06493 whole entry): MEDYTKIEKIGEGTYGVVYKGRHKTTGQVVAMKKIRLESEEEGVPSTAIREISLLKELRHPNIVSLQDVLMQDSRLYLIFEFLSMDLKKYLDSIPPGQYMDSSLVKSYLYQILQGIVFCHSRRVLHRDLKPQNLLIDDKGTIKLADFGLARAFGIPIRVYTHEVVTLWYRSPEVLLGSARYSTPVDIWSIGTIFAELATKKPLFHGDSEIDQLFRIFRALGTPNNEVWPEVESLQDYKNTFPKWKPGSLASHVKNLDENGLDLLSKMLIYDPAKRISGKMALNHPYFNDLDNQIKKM
Sequence of CDK1/Cyclin E1 (P24864 whole entry partner): as the sequence (P24864 whole entry partner) above

## CN1C/C=C/CCOc2cccc(c2)-c2ccnc(n2)Nc2cccc(c2)C1 [SB1317]
CDK1/Cyclin E1; average of experiments
  inhibition at 10 µM: 95.4%
CDK1/Cyclin E1; independent experiment 1
  inhibition at 10 µM: 95%
CDK1/Cyclin E1; independent experiment 2
  inhibition at 10 µM: 95.8%
CDK1/Cyclin E1; average (± SEM where n=3), read-out: CDK1/E1 IC50
  pIC50: 6.70
CDK1/Cyclin E1; independent experiment 1, read-out: CDK1/E1 IC50
  pIC50: 6.70
CDK1/Cyclin E1; independent experiment 2, read-out: CDK1/E1 IC50
  pIC50: 6.68
CDK1/Cyclin E1; live HEK-293, 2 h, mean ± S.E.M. (n=3) or mean (n=2), read-out: IC50 for CDK/cyclin complexes, CDK1/E1
  pIC50: 6.70
CDK2/Cyclin E1; average of experiments
  inhibition at 10 µM: 96.5%
CDK2/Cyclin E1; independent experiment 1
  inhibition at 10 µM: 98%
CDK2/Cyclin E1; independent experiment 2
  inhibition at 10 µM: 95%
CDK3/Cyclin E1; average of experiments
  inhibition at 10 µM: 97.1%
CDK3/Cyclin E1; independent experiment 1
  inhibition at 10 µM: 98.4%
  pIC50: 7.35
CDK3/Cyclin E1; independent experiment 2
  inhibition at 10 µM: 95.9%
  pIC50: 7.37
CDK3/Cyclin E1; average (± SEM where n=3)
  pIC50: 7.36
CDK4/Cyclin D1; average of experiments
  inhibition at 10 µM: 99.8%
CDK4/Cyclin D1; independent experiment 1
  inhibition at 10 µM: 100%
CDK4/Cyclin D1; independent experiment 2
  inhibition at 10 µM: 99.2%
CDK4/Cyclin D1; average (± SEM where n=3), read-out: CDK4/D1 IC50
  pIC50: 6.85
CDK4/Cyclin D1; independent experiment 1, read-out: CDK4/D1 IC50
  pIC50: 6.85
CDK4/Cyclin D1; independent experiment 2, read-out: CDK4/D1 IC50
  pIC50: 6.82
CDK4/Cyclin D1; live HEK-293, 2 h, mean ± S.E.M. (n=3) or mean (n=2), read-out: IC50 for CDK/cyclin complexes, CDK4/D1
  pIC50: 6.85
CDK5/CDK5R1; average of experiments
  inhibition at 10 µM: 93.3%
CDK5/CDK5R1; independent experiment 1
  inhibition at 10 µM: 88.5%
CDK5/CDK5R1; independent experiment 2
  inhibition at 10 µM: 98.1%
CDK5/CDK5R1; average (± SEM where n=3), read-out: CDK5/CDK5R1 IC50
  pIC50: 6.74
CDK5/CDK5R1; independent experiment 1, read-out: CDK5/CDK5R1 IC50
  pIC50: 6.72
CDK5/CDK5R1; independent experiment 2, read-out: CDK5/CDK5R1 IC50
  pIC50: 6.74
CDK5/CDK5R1; live HEK-293, 2 h, mean ± S.E.M. (n=3) or mean (n=2), read-out: IC50 for CDK/cyclin complexes, CDK5/R1
  pIC50: 6.74
CDK7; average of experiments
  inhibition at 10 µM: 96.4%
CDK7; independent experiment 1
  inhibition at 10 µM: 97.5%
  pIC50: 7.96
CDK7; independent experiment 2
  inhibition at 10 µM: 95.3%
  pIC50: 8.06
CDK7; average (± SEM where n=3)
  pIC50: 8.00
CDK8/Cyclin C; average of experiments
  inhibition at 10 µM: 72.3%
CDK8/Cyclin C; independent experiment 1
  inhibition at 10 µM: 57.3%
CDK8/Cyclin C; independent experiment 2
  inhibition at 10 µM: 87.3%
CDK9/Cyclin K; average of experiments
  inhibition at 10 µM: 99.7%
CDK9/Cyclin K; independent experiment 1
  inhibition at 10 µM: 100%
CDK9/Cyclin K; independent experiment 2
  inhibition at 10 µM: 99.2%
CDK11A/Cyclin L2; average of experiments
  inhibition at 10 µM: 95.6%
CDK11A/Cyclin L2; independent experiment 1
  inhibition at 10 µM: 93.3%
  pIC50: 6.70
CDK11A/Cyclin L2; independent experiment 2
  inhibition at 10 µM: 97.9%
  pIC50: 6.74
CDK11A/Cyclin L2; average (± SEM where n=3)
  pIC50: 6.72
